What follows are compounds tested on beta-TC6 cells (assay: Insulin HTRF assay (relative activity Ar) in beta-TC6 cells). Conditions: Mus musculus, Beta-TC6, 4 h, insulin HTRF, supernatant of beta-TC6 cells, incubation with test compound at 37°C for 2, 3, 4h; read-out: Ar (relative activity).
Format: cell-based, mouse
Outline: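 beta-TC6 cells (15k/well, seeded 24 or 48 h) washed, then exposed to compound in induction buffer (0.5% DMSO final) for 2, 3 or 4 h at 37°C.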

Row | SMILES | Emax [%]
1 | FC(F)(F)c1cccc(-c2cc3c(Nc4cccnc4)nccc3[nH]2)c1 [Compound 196, N-(3-pyridyl)-2-[3-(trifluoromethyl)phenyl]-1H-pyrrolo[3,2-c]pyridin-4-amine] | 50 to 100
2 | CS(=O)(=O)c1ccc(Nc2nccc3[nH]c(-c4cccc(C(F)(F)F)c4)cc23)cc1 [Compound 197, N-(4-methylsulfonylphenyl)-2-[3-(trifluoromethyl)phenyl]-1H-pyrrolo[3,2-c]pyridin-4-amine] | 30 to 50
3 | CC(=O)Nc1ccc(Nc2nccc3[nH]c(-c4cccc(F)c4)cc23)cc1 [Compound 198, N-[4-[[2-(3-fluorophenyl)-1H-pyrrolo[3,2-c]pyridin-4-yl]amino]phenyl]acetamide] | 50 to 100
4 | Oc1ccc(Nc2nccc3[nH]c(-c4cccc(F)c4)cc23)cc1 [Compound 199, 4-[[2-(3-fluorophenyl)-1H-pyrrolo[3,2-c]pyridin-4-yl]amino]phenol] | 50 to 100
5 | Fc1cccc(-c2cc3c(Nc4cccnc4)nccc3[nH]2)c1 [Compound 200, 2-(3-fluorophenyl)-N-(3-pyridyl)-1H-pyrrolo[3,2-c]pyridin-4-amine] | 30 to 50
6 | CN1CCN(c2ccc(Nc3nccc4[nH]c(-c5cccc(F)c5)cc34)cc2)CC1 [Compound 201, 2-(3-fluorophenyl)-N-[4-(4-methylpiperazin-1-yl)phenyl]-1H-pyrrolo[3,2-c]pyridin-4-amine] | 30 to 50
7 | CS(=O)(=O)c1cccc(Nc2nccc3[nH]c(-c4cccc(F)c4)cc23)c1 [Compound 202, 2-(3-fluorophenyl)-N-(3-methylsulfonylphenyl)-1H-pyrrolo[3,2-c]pyridin-4-amine] | 30 to 50
8 | Fc1cccc(-c2cc3c(Nc4ccc5c(c4)OCO5)nccc3[nH]2)c1 [Compound 203, N-(1,3-benzodioxol-5-yl)-2-(3-fluorophenyl)-1H-pyrrolo[3,2-c]pyridin-4-amine] | 30 to 50
9 | COc1ccc(Nc2nccc3[nH]c(-c4cccc(F)c4)cc23)cc1O [Compound 204, 5-[[2-(3-fluorophenyl)-1H-pyrrolo[3,2-c]pyridin-4-yl]amino]-2-methoxy-phenol] | 50 to 100
10 | CS(=O)(=O)Nc1cccc(Nc2nccc3[nH]c(-c4cccc(F)c4)cc23)c1 [Compound 205, N-[3-[[2-(3-fluorophenyl)-1H-pyrrolo[3,2-c]pyridin-4-yl]amino]phenyl]methanesulfonamide] | 50 to 100
11 | CC(=O)Nc1cccc(Nc2nccc3[nH]c(-c4cccc(F)c4)cc23)c1 [Compound 206, N-[3-[[2-(3-fluorophenyl)-1H-pyrrolo[3,2-c]pyridin-4-yl]amino]phenyl]acetamide] | 50 to 100
12 | CS(=O)(=O)c1ccc(Nc2nccc3[nH]c(-c4cccc(F)c4)cc23)cc1 [Compound 207, 2-(3-fluorophenyl)-N-(4-methylsulfonylphenyl)-1H-pyrrolo[3,2-c]pyridin-4-amine] | 50 to 100
13 | COc1ccc(Nc2nccc3c2cc(-c2cccc(F)c2)n3C)cc1OC [Compound 208, N-(3,4-dimethoxyphenyl)-2-(3-fluorophenyl)-1-methyl-pyrrolo[3,2-c]pyridin-4-amine] | 30 to 50
14 | CN1CCN(c2ccc(Nc3nccc4c3cc(-c3cccc(F)c3)n4C)cc2)CC1 [Compound 209, 2-(3-fluorophenyl)-1-methyl-N-[4-(4-methylpiperazin-1-yl)phenyl]pyrrolo[3,2-c]pyridin-4-amine] | 50 to 100
15 | CC(=O)Nc1cccc(Nc2nccc3c2cc(-c2cccc(F)c2)n3C)c1 [Compound 210, N-[3-[[2-(3-fluorophenyl)-1-methyl-pyrrolo[3,2-c]pyridin-4-yl]amino]phenyl]acetamide] | 30 to 50
16 | CC(=O)Nc1ccc(Nc2nccc3c2cc(-c2ccc(C(=O)N(C)C)cc2)n3C)cc1 [Compound 211, 4-[4-(4-acetamidoanilino)-1-methyl-pyrrolo[3,2-c]pyridin-2-yl]-N,N-dimethyl-benzamide] | 30 to 50
17 | COc1cccc(Nc2nccc3c2cc(-c2ccc(C(=O)N(C)C)cc2)n3C)c1 [Compound 212, 4-[4-(3-methoxyanilino)-1-methyl-pyrrolo[3,2-c]pyridin-2-yl]-N,N-dimethyl-benzamide] | 30 to 50
18 | CN(C)C(=O)c1ccc(-c2cc3c(Nc4ccc(C(N)=O)cc4)nccc3n2C)cc1 [Compound 213, 4-[4-(4-carbamoylanilino)-1-methyl-pyrrolo[3,2-c]pyridin-2-yl]-N,N-dimethyl-benzamide] | 50 to 100
19 | CN(C)C(=O)c1ccc(-c2cc3c(Nc4ccc5c(c4)OCCO5)nccc3n2C)cc1 [Compound 214, 4-[4-(2,3-dihydro-1,4-benzodioxin-6-ylamino)-1-methyl-pyrrolo[3,2-c]pyridin-2-yl]-N,N-dimethyl-benzamide] | 50 to 100
20 | COc1ccc(Nc2nccc3c2cc(-c2ccc(C(=O)N(C)C)cc2)n3C)cc1OC [Compound 215, 4-[4-(3,4-dimethoxyanilino)-1-methyl-pyrrolo[3,2-c]pyridin-2-yl]-N,N-dimethyl-benzamide] | 50 to 100

Row | SMILES | Emax [%]
21 | COc1ccc(Nc2nccc3c2cc(-c2ccc(C(=O)N(C)C)cc2)n3C)cn1 [Compound 216, 4-[4-[(6-methoxy-3-pyridyl)amino]-1-methyl-pyrrolo[3,2-c]pyridin-2-yl]-N,N-dimethyl-benzamide] | 50 to 100
22 | CN(C)C(=O)c1ccc(-c2cc3c(Nc4ccc(Oc5ccccc5)cc4)nccc3n2C)cc1 [Compound 217, N,N-dimethyl-4-[1-methyl-4-(4-phenoxyanilino)pyrrolo[3,2-c]pyridin-2-yl]benzamide] | 0 to 30
23 | CN(C)C(=O)c1ccc(-c2cc3c(Nc4cccc(N(C)C)c4)nccc3n2C)cc1 [Compound 218, 4-[4-[3-(dimethylamino)anilino]-1-methyl-pyrrolo[3,2-c]pyridin-2-yl]-N,N-dimethyl-benzamide] | 50 to 100
24 | CN(C)C(=O)c1ccc(-c2cc3c(Nc4ccccn4)nccc3n2C)cc1 [Compound 219, N,N-di methyl-4-[1-methyl-4-(2-pyridylamino)pyrrolo[3,2-c]pyridin-2-yl]benzamide] | 30 to 50
25 | COc1cc(Nc2nccc3c2cc(-c2ccc(C(=O)N(C)C)cc2)n3C)cc(C(F)(F)F)c1 [Compound 220, N,N-dimethyl-4-[1-methyl-4-(3-methoxy-5-(trifuloromethyl)phenylamino)pyrrolo[3,2-c]pyridin-2-yl]benzamide] | 0 to 30
26 | CN(C)C(=O)c1ccc(-c2cc3c(Nc4cccc(O)c4)nccc3n2C)cc1 [Compound 221, 4-[4-(3-hydroxyanilino)-1-methyl-pyrrolo[3,2-c]pyridin-2-yl]-N,N-dimethyl-benzamide] | 30 to 50
27 | CN(C)C(=O)c1ccc(-c2cc3c(Nc4cccc(OC(F)(F)F)c4)nccc3n2C)cc1 [Compound 222, N,N-dimethyl-4-[1-methyl-4-[3-(trifluoromethoxy)anilino]pyrrolo[3,2-c]pyridin-2-yl]benzamide] | 0 to 30
28 | CN(C)C(=O)c1ccc(-c2cc3c(Nc4cccc(Oc5ccccc5)c4)nccc3n2C)cc1 [Compound 223, N,N-dimethyl-4-[1-methyl-4-(3-phenoxyanilino)pyrrolo[3,2-c]pyridin-2-yl]benzamide] | 0 to 30
29 | CC(C)c1cccc(Nc2nccc3c2cc(-c2ccc(C(=O)N(C)C)cc2)n3C)c1 [Compound 224, 4-[4-(3-isopropylanilino)-1-methyl-pyrrolo[3,2-c]pyridin-2-yl]-N,N-dimethyl-benzamide] | 0 to 30
30 | CN(C)C(=O)c1ccc(-c2cc3c(Nc4cccc(NS(C)(=O)=O)c4)nccc3n2C)cc1 [Compound 225, 4-[4-[3-(methanesulfonamido)anilino]-1-methyl-pyrrolo[3,2-c]pyridin-2-yl]-N,N-dimethyl-benzamide] | 30 to 50
31 | CN(C)c1ccc(-c2cc3c(Nc4ccc(O)cc4)nccc3n2C)cc1 [Compound 226, 4-[[2-(4-dimethylaminophenyl)-1-methyl-pyrrolo[3,2-c]pyridin-4-yl]amino]phenol] | 50 to 100
32 | CN(C)c1ccc(-c2cc3c(Nc4ccc(C(N)=O)cc4)nccc3n2C)cc1 [Compound 227, 4-[[2-(4-dimethylaminophenyl)-1-methyl-pyrrolo[3,2-c]pyridin-4-yl]amino]benzamide] | 30 to 50
33 | COc1ccc(Nc2nccc3c2cc(-c2ccc(N(C)C)cc2)n3C)cc1O [Compound 228, 5-[[2-(4-dimethylaminophenyl)-1-methyl-pyrrolo[3,2-c]pyridin-4-yl]amino]-2-methoxy-phenol] | 50 to 100
34 | CN(C)c1ccc(-c2cc3c(Nc4ccncn4)nccc3n2C)cc1 [Compound 229, 2-(4-dimethylaminophenyl)-1-methyl-N-pyrimidin-4-yl-pyrrolo[3,2-c]pyridin-4-amine] | > 100
35 | CN(C)c1ccc(-c2cc3c(Nc4ccc(S(C)(=O)=O)cc4)nccc3n2C)cc1 [Compound 230, 2-(4-dimethylaminophenyl)-1-methyl-N-(4-methylsulfonylphenyl)pyrrolo[3,2-c]pyridin-4-amine] | 30 to 50
36 | CC(=O)Nc1ccc(Nc2nccc3[nH]c(-c4cccnc4)cc23)cc1 [Compound 231, N-[4-[[2-(3-pyridyl)-1H-pyrrolo[3,2-c]pyridin-4-yl]amino]phenyl]acetamide] | > 100
37 | c1cncc(-c2cc3c(Nc4ccc5c(c4)OCCO5)nccc3[nH]2)c1 [Compound 232, N-(2,3-dihydro-1,4-benzodioxin-6-yl)-2-(3-pyridyl)-1H-pyrrolo[3,2-c]pyridin-4-amine] | 50 to 100
38 | COc1ccc(Nc2nccc3[nH]c(-c4cccnc4)cc23)cn1 [Compound 233, N-(6-methoxy-3-pyridyl)-2-(3-pyridyl)-1H-pyrrolo[3,2-c]pyridin-4-amine] | 50 to 100
39 | c1cncc(Nc2nccc3[nH]c(-c4cccnc4)cc23)c1 [Compound 234, N,2-bis(3-pyridyl)-1H-pyrrolo[3,2-c]pyridin-4-amine] | 50 to 100
40 | CN1CCN(c2ccc(Nc3nccc4[nH]c(-c5cccnc5)cc34)cc2)CC1 [Compound 235, N-[4-(4-methylpiperazin-1-yl)phenyl]-2-(3-pyridyl)-1H-pyrrolo[3,2-c]pyridin-4-amine] | 50 to 100

From EP2818472A1, “Imidazo[4,5-c]pyridine and pyrrolo[3,2-c]pyridine compounds as G-protein-coupled receptor kinase 5 (GRK5) modulators” (Max-Planck-Gesellschaft zur Förderung der Wissenschaften …, priority 2013, dated 2014)
